≈ marks a conversion by molar mass, not a printed value.

Experiment [1] relates to Streptococcus pneumoniae P1. Put plainly: broth micro-dilution MIC. In kind it is cell-based. The protocol:
(§1) The formula I compounds have in vitro and in vivo activity against Gram-positive pathogenic bacteria. The MIC's were determined using a standard broth micro-dilution assay.

Experiment [2] concerns Staphylococcus haemolyticus 415. In words: broth micro-dilution MIC. The experiment is classed as cell-based. The protocol:
as §1

Experiment [3] concerns Staphylococcus epidermidis 270. Put plainly: broth micro-dilution MIC. The experiment is classed as cell-based. The protocol:
as §1
(In broth dilution the organism is exposed to a series of concentrations in liquid medium.)

The subject of experiment [4] is Enterococcus gallinarum 245. In words: broth micro-dilution MIC. The experiment is classed as cell-based. Particulars: Enterococcus gallinarum 245. The protocol: as §1
In experiment [5] the test system is Entercoccus faecium 2041. Put plainly: broth micro-dilution MIC. In kind it is cell-based. Particulars: Entercoccus faecium 2041. As to the method: as §1
Experiment [6] relates to Staphylococcus haemolyticus 105. Put plainly: broth micro-dilution MIC. The experiment is classed as cell-based. The protocol: as §1
Experiment [7] relates to Entercoccus faecium 180. In words: broth micro-dilution MIC. The experiment is classed as cell-based. The following applies: Entercoccus faecium 180. The protocol: as §1
Experiment [8] has as its system Staphylococcus aureus 491. In words: broth micro-dilution MIC. In kind it is cell-based. The protocol:
(§2) The MIC's were determined using a standard broth micro-dilution assay.

The subject of experiment [9] is Streptococcus pyogenes C203. Put plainly: broth micro-dilution MIC. In kind it is cell-based. The protocol:
as §2

For experiment [10], the system named is Staphylococcus aureus 446. In words: broth micro-dilution MIC. The experiment is classed as cell-based. The protocol:
as §2

Experiment [11] relates to Staphylococcus aureus X400. Put plainly: broth micro-dilution MIC. The experiment is classed as cell-based. The protocol: as §2
The subject of experiment [12] is Staphylococcus aureus 489. Put plainly: broth micro-dilution MIC. The experiment is classed as cell-based. The protocol:
as §2

For experiment [13], the system named is Staphylococcus aureus X778. Put plainly: broth micro-dilution MIC. In kind it is cell-based. The protocol:
as §2

For experiment [14], the system named is Staphylococcus aureus 447. In words: broth micro-dilution MIC. In kind it is cell-based. The protocol: as §2
In experiment [15] the test system is Staphylococcus aureus SA1199A. In words: broth micro-dilution MIC. The experiment is classed as cell-based. As to the method:
as §2

Experiment [16] relates to Staphylococcus aureus SA1199. Put plainly: broth micro-dilution MIC. In kind it is cell-based. As to the method:
as §2

Experiment [17] relates to Entercoccus faecium 276. In words: broth micro-dilution MIC. The experiment is classed as cell-based. As to the method: as §2
Experiment [18] has as its system Entercoccus faecium 180-1. Put plainly: broth micro-dilution MIC. In kind it is cell-based. The protocol: as §2
Experiment [19] concerns vancomycin-resistant enterococci. In words: broth micro-dilution, mean geometric MIC. The experiment is classed as cell-based, Enterococcus faecium and Enterococcus faecalis. The following applies: enterococci, 24-hour incubation.
The subject of experiment [20] is Streptococcus pneumoniae. Put plainly: mouse protection, experimentally-induced infection. The experiment is classed as in vivo. Particulars: mice infected with Streptococcus pneumoniae, two doses.
For experiment [21], the system named is vancomycin-susceptible enterococci. In words: broth micro-dilution, mean geometric MIC. In kind it is cell-based, Enterococcus faecium and Enterococcus faecalis. Particulars: enterococci, 24-hour incubation.
Experiment [22] deals with Streptococcus pyogenes. Put plainly: mouse protection, experimentally-induced infection. The experiment is classed as in vivo. Particulars: mice infected with Streptococcus pyogenes, two doses.
Experiment [23] has as its system Staphylococcus aureus SA1199B. The experiment is classed as cell-based. As to the method:
as §2

For experiment [24], the system named is Staphylococcus aureus S13E. The experiment is classed as cell-based. The protocol:
as §2

Experiment [25] relates to Haemophilus influenzae RD. In words: broth micro-dilution MIC. The experiment is classed as cell-based. Particulars: Haemophilus influenzae RD. The protocol:
as §1

With `CCc1ccc(-c2ccc(CNC3(C)CC(OC4C(Oc5c6cc7cc5Oc5ccc(cc5Cl)C(OC5CC(C)(N)C(O)C(C)O5)C5NC(=O)C(NC(=O)C7NC(=O)C(CC(N)=O)NC(=O)C(NC(=O)C(CC(C)C)NC)C(O)c7ccc(c(Cl)c7)O6)c6ccc(O)c(c6)-c6c(O)cc(O)cc6C(C(=O)O)NC5=O)OC(CO)C(O)C4O)OC(C)C3O)cc2)cc1` (stereo not shown) [Compound 90], the MIC is at most 0.06 µg/mL in [1]; 2 µg/mL (≈ 1.12 µM) in experiment [2]; 1 µg/mL (≈ 0.56 µM) in experiment [3]; 2 µg/mL (≈ 1.12 µM) in experiment [4]; 0.125 µg/mL (≈ 0.07 µM) in [5]; 2 µg/mL (≈ 1.12 µM) in experiment [6]. Also, the MIC in experiment [7] was 0.25 µg/mL (≈ 0.14 µM); in experiment [8], 2 µg/mL (≈ 1.12 µM); in experiment [9], at most 0.06 µg/mL; in experiment [10] it was 2 µg/mL (≈ 1.12 µM); in [11], 1 µg/mL (≈ 0.56 µM); in experiment [12] it was 2 µg/mL (≈ 1.12 µM). The MIC is 1 µg/mL (≈ 0.56 µM) in [13]; 1 µg/mL (≈ 0.56 µM) in experiment [14]; 0.5 µg/mL (≈ 0.28 µM) in experiment [15]; 2 µg/mL (≈ 1.12 µM) in experiment [16]; 2 µg/mL (≈ 1.12 µM) in experiment [17]; at most 0.06 µg/mL in experiment [18]. In addition, the MIC in experiment [23] and in experiment [24] was 1 µg/mL (≈ 0.56 µM) in each case. The “mean geometric MIC, Vancomycin Resistant Strains” value in [19] worked out at 0.71 µg/mL. For the same compound, the ED50 in experiment [20] was 0.049 mg/kg/2; in experiment [22], 0.058 mg/kg/2. Also, the “mean geometric MIC, Vancomycin Sensitive Strains” value in experiment [21] stood at 0.041 µg/mL.
As to `CCCc1ccc(-c2ccc(CNC3(C)CC(OC4C(Oc5c6cc7cc5Oc5ccc(cc5Cl)C(OC5CC(C)(N)C(O)C(C)O5)C5NC(=O)C(NC(=O)C7NC(=O)C(CC(N)=O)NC(=O)C(NC(=O)C(CC(C)C)NC)C(O)c7ccc(c(Cl)c7)O6)c6ccc(O)c(c6)-c6c(O)cc(O)cc6C(C(=O)O)NC5=O)OC(CO)C(O)C4O)OC(C)C3O)cc2)cc1` (stereo not shown) [Compound 107], the MIC in [1] was at most 0.06 µg/mL; in [2], 2 µg/mL (≈ 1.11 µM); in [3], 0.5 µg/mL (≈ 0.278 µM); in experiment [4] it was 2 µg/mL (≈ 1.11 µM); in [5], 0.5 µg/mL (≈ 0.278 µM); in [6], 2 µg/mL (≈ 1.11 µM). The MIC was 0.125 µg/mL (≈ 0.0694 µM) in experiment [7]; 1 µg/mL (≈ 0.555 µM) in experiment [8]; at most 0.06 µg/mL in experiment [9]; 2 µg/mL (≈ 1.11 µM) in [10]; 1 µg/mL (≈ 0.555 µM) in experiment [11]; 1 µg/mL (≈ 0.555 µM) in [12]. Further, the MIC was 0.5 µg/mL (≈ 0.278 µM) in experiment [13]; 1 µg/mL (≈ 0.555 µM) in experiment [14]; at most 0.06 µg/mL in [15]; 1 µg/mL (≈ 0.555 µM) in experiment [16]; 1 µg/mL (≈ 0.555 µM) in experiment [17]; at most 0.06 µg/mL in experiment [18]. Besides, the MIC in experiment [23] and in [24] was 2 µg/mL (≈ 1.11 µM) in each case. Besides, the “mean geometric MIC, Vancomycin Resistant Strains” value in [19] stood at 0.59 µg/mL. In addition, the figures for the ED50 in [20] and in experiment [22] were 0.092 mg/kg/2 and 0.27 mg/kg/2, respectively. Besides, the “mean geometric MIC, Vancomycin Sensitive Strains” value in experiment [21] came out at 0.082 µg/mL.
On to `CNC(CC(C)C)C(=O)NC1C(=O)NC(CC(N)=O)C(=O)NC2C(=O)NC3C(=O)NC(C(=O)NC(C(=O)O)c4cc(O)cc(O)c4-c4cc3ccc4O)C(OC3CC(C)(N)C(O)C(C)O3)c3ccc(c(Cl)c3)Oc3cc2cc(c3OC2OC(CO)C(O)C(O)C2OC2CC(C)(NCc3cccc(Oc4cccc(C(F)(F)F)c4)c3)C(O)C(C)O2)Oc2ccc(cc2Cl)C1O` (stereo not shown) [Compound 111], for which the MIC in experiment [1] was at most 0.06 µg/mL; in [2], 4 µg/mL (≈ 2.17 µM); in experiment [3], 1 µg/mL (≈ 0.543 µM); in [4], 4 µg/mL (≈ 2.17 µM); in experiment [5], at most 0.06 µg/mL; in [6] it was 1 µg/mL (≈ 0.543 µM). The MIC in experiment [7] is at most 0.06 µg/mL; in experiment [8] it was 2 µg/mL (≈ 1.09 µM); in experiment [9] it was at most 0.06 µg/mL; in [10] it was 2 µg/mL (≈ 1.09 µM); in [11], 1 µg/mL (≈ 0.543 µM); in [12], 1 µg/mL (≈ 0.543 µM). Also, the MIC is 2 µg/mL (≈ 1.09 µM) in experiment [13]; 1 µg/mL (≈ 0.543 µM) in experiment [14]; 0.5 µg/mL (≈ 0.271 µM) in [15]; 2 µg/mL (≈ 1.09 µM) in experiment [16]; 0.5 µg/mL (≈ 0.271 µM) in experiment [17]; at most 0.06 µg/mL in experiment [18]. Moreover, the MIC in [23] and in [24] was 1 µg/mL (≈ 0.543 µM) each time. In addition, in experiment [19], the “mean geometric MIC, Vancomycin Resistant Strains” value came to 0.71 µg/mL. Besides, the ED50 in experiment [20] was determined as 0.084 mg/kg/2; in [22], 0.099 mg/kg/2. Also, the “mean geometric MIC, Vancomycin Sensitive Strains” value in experiment [21] was determined as 0.031 µg/mL.
As for `C=CCCCCCCCCCNC1(C)CC(OC2C(Oc3c4cc5cc3Oc3ccc(cc3Cl)C(OC3CC(C)(N)C(O)C(C)O3)C3NC(=O)C(NC(=O)C5NC(=O)C(CC(N)=O)NC(=O)C(NC(=O)C(CC(C)C)NC)C(O)c5ccc(c(Cl)c5)O4)c4ccc(O)c(c4)-c4c(O)cc(O)cc4C(C(=O)O)NC3=O)OC(CO)C(O)C2O)OC(C)C1O` (stereo not shown) [Compound 204], the MIC in experiment [1] is at most 0.06 µg/mL; in [3] it was at most 0.06 µg/mL; in experiment [25], 2 µg/mL (≈ 1.15 µM); in experiment [5], at most 0.06 µg/mL; in experiment [6], 0.5 µg/mL (≈ 0.287 µM); in experiment [8] it was 0.5 µg/mL (≈ 0.287 µM). Further, the MIC is at most 0.06 µg/mL in experiment [9]; 0.5 µg/mL (≈ 0.287 µM) in [13]; at most 0.06 µg/mL in experiment [14]; at most 0.06 µg/mL in experiment [17]; 0.5 µg/mL (≈ 0.287 µM) in experiment [24]. In experiment [19], the “mean geometric MIC, Vancomycin Resistant Strains” value was 0.71 µg/mL. Moreover, the ED50 in experiment [20] is reported as 0.046 mg/kg/2; in experiment [22] it was under 0.031 mg/kg/2. Besides, the “mean geometric MIC, Vancomycin Sensitive Strains” value in [21] turned out to be 0.031 µg/mL.
`CNC(CC(C)C)C(=O)NC1C(=O)NC(CC(N)=O)C(=O)NC2C(=O)NC3C(=O)NC(C(=O)NC(C(=O)O)c4cc(O)cc(O)c4-c4cc3ccc4O)C(OC3CC(C)(N)C(O)C(C)O3)c3ccc(c(Cl)c3)Oc3cc2cc(c3OC2OC(CO)C(O)C(O)C2OC2CC(C)(NCc3ccc(-c4ccc(Br)cc4)cc3)C(O)C(C)O2)Oc2ccc(cc2Cl)C1O` (stereo not shown) [Compound 230]: the MIC in experiment [1] was at most 0.06 µg/mL; in experiment [2], 2 µg/mL (≈ 1.09 µM); in experiment [3] it was 0.5 µg/mL (≈ 0.272 µM); in [25], 32 µg/mL (≈ 17.4 µM); in [4] it was 4 µg/mL (≈ 2.18 µM); in [5], at most 0.06 µg/mL. In addition, the MIC in [6] is 1 µg/mL (≈ 0.544 µM); in [7], at most 0.06 µg/mL; in [9], at most 0.06 µg/mL; in experiment [11], 0.5 µg/mL (≈ 0.272 µM); in [14], 0.5 µg/mL (≈ 0.272 µM); in experiment [15], at most 0.06 µg/mL. In addition, the MIC was at most 0.06 µg/mL in experiment [17], at most 0.06 µg/mL in experiment [18] and 0.5 µg/mL (≈ 0.272 µM) in [24]. Besides, in [19], the “mean geometric MIC, Vancomycin Resistant Strains” value worked out at 0.35 µg/mL. Moreover, the ED50 in experiment [20] turned out to be 0.078 mg/kg/2; in experiment [22] it was 0.046 mg/kg/2. Moreover, the “mean geometric MIC, Vancomycin Sensitive Strains” value in experiment [21] stood at 0.031 µg/mL.

(Values after US5840684A, “Glycopeptide antibiotic derivatives” (Eli Lilly and Company, priority 1995, dated 1998).)
